# Test results published in patent US20230381129A1, “PERMETRIN FOR USE IN THE TREATMENT OF DEMODEX SPP INFESTATION” (priority 2020, published 2023).
# Structures can show the parent of a compound that is named as a salt.
# How the values were obtained:
# Demodex mites = experiment: In vitro survival study of Demodex mites on a glass slide without a coverslip; design: species or system Demodex spp.
# Procedure: At least ten eyelashes from the upper and lower eyelids of both eyes were randomly collected from all subjects from the subsequent groups. The collected material was assessed in a UB-203i light microscope with a five-point revolver bowl and a vision track with a magnification of 4×, 10×, 20×, 40× and 100×, archiving the results with a digital camera type Toupcam TP 601300A from Touptek Photonics installed in the device.
# In the case of the presence of Demodex mites, several dozen different chemical compounds in various concentrations with a potential demodicidal effect were used on the glass slide without the use of a coverslip. […] The in vitro test results for permethrin and fluralaner were archived using a Toupcam TP 601300A digital camera from Touptek Photonics mounted on the device.
# Demodex spp. infestation = experiment: Topical use of shampoo or shower gel in a person with inflammation and redness; assay type: in vivo, humans; conditions: shampoo or shower gel containing 0.75% active, 3 times a week for 2 months, human
# Description: A shampoo or shower gel containing 0.75% permethrin is used 3 times a week for a period of 2 months.
# Shampoo or shower gel containing 0.75% fluralaner is used 3 times a week for a period of 2 months.
# A shampoo or shower gel containing 0.5% fluralaner and 0.5% permethrin is used 3 times a week for a period of 2 months.
compound,measurement,setting,value
"N=C(NCCCCCCNC(=N)NC(=N)Nc1ccc(Cl)cc1)NC(=N)Nc1ccc(Cl)cc1.O=C(O)[C@H](O)[C@@H](O)[C@H](O)[C@H](O)CO.O=C(O)[C@H](O)[C@@H](O)[C@H](O)[C@H](O)CO [Manusan (chlorhexidine digluconate), chlorhexidine digluconate]",Time of Survival of Demodex mites,Demodex mites; concentration 4%,more than 15 minutes
CC=CC(=O)N(CC)c1ccccc1C [Crotamiton],Time of Survival of Demodex mites,Demodex mites; concentration 10%,more than 15 minutes
CCO [Ethanol],Time of Survival of Demodex mites,Demodex mites; concentration 98%,more than 15 minutes
CC1COc2c(N3CCN(C)CC3)c(F)cc3c(=O)c(C(=O)O)cn1c23 (stereo not drawn) [Ofloxacin],Time of Survival of Demodex mites,Demodex mites; concentration 0.30%,more than 15 minutes
NC[C@H]1O[C@H](O[C@H]2[C@H](O)[C@@H](O[C@H]3O[C@H](CO)[C@@H](O)[C@H](N)[C@H]3O)[C@H](N)C[C@@H]2N)[C@H](N)C[C@@H]1O [Tobramycin],Time of Survival of Demodex mites,Demodex mites; concentration 0.30%,more than 15 minutes
NCC[C@H](O)C(=O)N[C@@H]1C[C@H](N)[C@@H](O[C@H]2O[C@H](CN)[C@@H](O)[C@H](O)[C@H]2O)[C@H](O)[C@H]1O[C@H]1O[C@H](CO)[C@@H](O)[C@H](N)[C@H]1O [Amikacin],Time of Survival of Demodex mites,Demodex mites; concentration 0.30%,more than 15 minutes
"OO [Hydrogen peroxide (hydrogen peroxide), Hydrogen peroxide]",Time of Survival of Demodex mites,Demodex mites; concentration 3%,more than 15 minutes
CN1[C@@H]2CC[C@H]1CC(OC(=O)C(CO)c1ccccc1)C2.CN1[C@@H]2CC[C@H]1CC(OC(=O)C(CO)c1ccccc1)C2.O=S(=O)(O)O (stereo partly drawn) [Atropinum sulfuricum],Time of Survival of Demodex mites,Demodex mites; concentration 1%,more than 15 minutes
NC(N)=O [Urea],Time of Survival of Demodex mites,Demodex mites; concentration 20%,more than 15 minutes
C[C@H]1COc2c(N3CCN(C)CC3)c(F)cc3c(=O)c(C(=O)O)cn1c23 [Levofloxacin],Time of Survival of Demodex mites,Demodex mites; concentration 0.50%,more than 15 minutes
Ivermectin,Time of Survival of Demodex mites,Demodex mites; concentration 1%,more than 15 minutes
O=C(O)c1cn(C2CC2)c2cc(N3CCNCC3)c(F)cc2c1=O [Ciprofloxacin],Time of Survival of Demodex mites,Demodex mites; concentration 0.30%,more than 15 minutes
"O=C(OCc1ccccc1)c1ccccc1 [Novosscabin (benzyl benzoate), benzyl benzoate]",Time of Survival of Demodex mites,Demodex mites; concentration 30%,more than 15 minutes
CC1(C)C(C=C(Cl)Cl)C1C(=O)OCc1cccc(Oc2ccccc2)c1 (stereo not drawn) [Permethrin],"Eyelid margin inflammation and eye symptoms (burning, itching, dry eyes, scales and deposits) after treatment",Demodex spp. infestation,reduction in inflammation of the eyelid margins
same,Skin inflammation symptoms and redness after treatment,Demodex spp. infestation,visible improvement
same,Time of Survival of Demodex mites,Demodex mites; concentration 10%,5 min
"Cc1cc(C2=NOC(c3cc(Cl)cc(Cl)c3)(C(F)(F)F)C2)ccc1C(=O)NCC(=O)NCC(F)(F)F (stereo not drawn) [Fluralaner, 4-[(5R5)-5-(3,5-dichlorophenyl)-4,5-dihydro-5-(trifluoromethyl)-1,2-oxazol-3-yl]-N-[2-oxo-2-(2,2,2-trifluoroethylamino)ethyl]-o-toluamide]","Eyelid margin inflammation and eye symptoms (burning, itching, dry eyes, scales and deposits) after treatment",Demodex spp. infestation,reduction in inflammation of the eyelid margins
same,Skin inflammation symptoms and redness after treatment,Demodex spp. infestation,visible improvement
same,Time of Survival of Demodex mites,Demodex mites; concentration 10%,6 min
CNC[C@H](O)c1cccc(O)c1.Cl [Phenylephrini hydrochloridum],Time of Survival of Demodex mites,Demodex mites; concentration 10%,more than 15 minutes
Gentamicin,Time of Survival of Demodex mites,Demodex mites; concentration 0.30%,more than 15 minutes
CC[C@@H]1C(=O)OC[C@@H]1Cc1cncn1C.Cl [Pilocarpinum hydrochloridum],Time of Survival of Demodex mites,Demodex mites; concentration 2%,more than 15 minutes
CN(C)CCOC(=O)C(c1ccccc1)C1(O)CCCC1 (stereo not drawn) [Cyclopentolat],Time of Survival of Demodex mites,Demodex mites; concentration 1%,more than 15 minutes
"CN(C)C(=O)Oc1cccc([N+](C)(C)C)c1 [Polstigmine (neostigmine methyl sulfate), neostigmine methyl sulfate]",Time of Survival of Demodex mites,Demodex mites; concentration 0.05%,more than 15 minutes
